Data from patent publication US10016383B2, “Inhibitors of metallo-β-lactamase-enzymes” (McMaster University, priority 2013, dated 2018).
“Also recorded” adds a separate entry of the source.

What was measured:
CTX-M-15 = target: T1, CTX-M-15 (Escherichia coli, UniProt Q9EXV5); experiment: IC50 enzyme inhibition assay, nitrocefin reporter substrate; format: biochemical
T1 construct: All β-lactamase overexpression constructs were generated without the leader peptide in a pET-28b plasmid containing a N-terminal His Tag; His tag (N); made in house; host or cells: E. coli BL21(DE3)
T1 sequence (Q9EXV5 entry or part of it): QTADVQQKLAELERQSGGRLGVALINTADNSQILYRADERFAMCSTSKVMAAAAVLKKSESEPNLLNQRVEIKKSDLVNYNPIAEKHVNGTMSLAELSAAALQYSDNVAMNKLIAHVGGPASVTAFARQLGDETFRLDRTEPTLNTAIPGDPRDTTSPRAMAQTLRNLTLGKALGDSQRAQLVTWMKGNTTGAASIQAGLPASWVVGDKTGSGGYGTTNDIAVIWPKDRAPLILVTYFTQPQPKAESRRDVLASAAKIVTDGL
Procedure: (§1) Enzyme (NDM-1, 5 nM; VIM-2, 500 pM; CTX-M-15, 500 pM; KPC-2, 5 nM; OXA-48, 1 nM; TEM-1, 100 pM; ACE, 50 nM) was mixed with 30 μM nitrocefin (100 μM nitrocefin for TEM-1; 250 µM furanacryloyl-L-phenylalanylglycylglycine [FAPGG] for ACE^24) after a 5-10 minute preincubation with AM-A. Metallo-enzymes were supplemented with 10 μM ZnSO4. Assays were read in 96-well microplate format at 490 nm using a Spectramax reader (Molecular Devices) at 30-37° C.
(§2) E. coli strain BW25113 was modified by deletion of the bamB and tolC genes so as to increase permeability to and reduce efflux of small molecules. This strain was then further modified by the single-copy chromosomal insertion of the blaNDM-1 gene under control of the pLac promoter. Microbial natural product extracts were screened against this strain in the presence of sublethal ¼ MIC meropenem. AM-A was purified from a hit extract and its structure elucidated by NMR, mass spectrometry and polarimetry. IC50 values for AM-A were determined using nitrocefin (for MBLs and Ser BLs) and furanacryloyl-L-phenylalanylglycylglycine (for ACE)^21 as reporter substrates against the following purified enzymes: MBLs IMP-7, VIM-2, and NDM-1; SBLs CTX-M-15, KPC-2, OXA-48, and TEM-1; as well as ACE from rabbit lung. IC50, reversibility, Zn^2+ restoration, and inactivation enzyme assays were performed in 50 mM HEPES pH 7.5 and measured using a SpectraMax reader (Molecular Devices). ICP-MS experiments were conducted using purified NDM-1 at 5 mg/mL and varying concentrations of AM-A with subsequent dilution and transfer by nebulization into a NexION 3000 ICP mass spectrometer (Perkin Elmer). FIC values were determined using standard methods^27. Various concentrations of AM-A were tested in combination with 2 mg/L meropenem against 200+MBL-expressing clinical isolates including Pseudomonas spp., Acinetobacter spp., and Enterobacteriaceae. A dose of 2×10^6 forming units (cfu) of Klebsiella pneumoniae N11-2218 was used for all organ bacterial load experiments and a dose of 5×10^7cfu for all survival experiments. For all experiments, mice were treated with compound 30 minutes post infection.

IMP-7 = experiment: as above; format: biochemical
Procedure: as §1, §2

KPC-2 = target: T2, KPC-2 (Klebsiella pneumoniae, UniProt Q9F663); experiment: as above; format: biochemical
T2 construct: All β-lactamase overexpression constructs were generated without the leader peptide in a pET-28b plasmid containing a N-terminal His Tag; His tag (N); made in house
T2 sequence (Q9F663 25-293 limits assumed): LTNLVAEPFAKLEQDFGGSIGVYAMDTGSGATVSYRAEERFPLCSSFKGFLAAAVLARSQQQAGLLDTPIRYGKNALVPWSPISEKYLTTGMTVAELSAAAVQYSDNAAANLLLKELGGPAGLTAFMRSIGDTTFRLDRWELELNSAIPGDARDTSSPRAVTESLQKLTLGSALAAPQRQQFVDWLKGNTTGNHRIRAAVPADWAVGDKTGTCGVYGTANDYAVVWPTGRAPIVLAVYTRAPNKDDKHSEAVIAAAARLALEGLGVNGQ
Procedure: as §1, §2

OXA-48 = target: T3, OXA-48 (Klebsiella pneumoniae, UniProt Q6XEC0); experiment: as above; format: biochemical
T3 construct: All β-lactamase overexpression constructs were generated without the leader peptide in a pET-28b plasmid containing a N-terminal His Tag; His tag (N); made in house; host or cells: E. coli BL21(DE3)
T3 sequence (Q6XEC0 23-265 limits assumed): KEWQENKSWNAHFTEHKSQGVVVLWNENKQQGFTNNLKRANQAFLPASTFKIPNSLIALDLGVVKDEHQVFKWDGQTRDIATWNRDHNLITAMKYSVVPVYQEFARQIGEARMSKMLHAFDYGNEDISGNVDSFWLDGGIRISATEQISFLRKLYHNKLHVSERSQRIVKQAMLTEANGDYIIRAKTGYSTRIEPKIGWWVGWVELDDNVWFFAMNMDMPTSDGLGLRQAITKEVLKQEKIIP
Procedure: as §1, §2

TEM-1 = target: T4, TEM-1 (Escherichia coli, UniProt P62593); experiment: as above; format: biochemical
T4 construct: All β-lactamase overexpression constructs were generated without the leader peptide in a pET-28b plasmid containing a N-terminal His Tag; His tag (N); made in house; host or cells: E. coli BL21(DE3)
T4 sequence (P62593 24-286 limits assumed): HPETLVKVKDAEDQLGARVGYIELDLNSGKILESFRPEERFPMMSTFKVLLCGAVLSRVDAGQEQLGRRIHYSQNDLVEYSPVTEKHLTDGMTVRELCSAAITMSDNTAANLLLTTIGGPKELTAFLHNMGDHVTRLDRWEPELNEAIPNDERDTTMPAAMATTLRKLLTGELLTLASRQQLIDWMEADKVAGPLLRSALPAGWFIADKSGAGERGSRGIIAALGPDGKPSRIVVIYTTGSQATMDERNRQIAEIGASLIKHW
Procedure: as §1, §2

VIM-2 = target: T5, VIM-2 (Escherichia coli, UniProt Q5U7L7); experiment: as above; format: biochemical
T5 construct: All β-lactamase overexpression constructs were generated without the leader peptide in a pET-28b plasmid containing a N-terminal His Tag; His tag (N); made in house; host or cells: E. coli BL21(DE3)
Procedure: as §1, §2

NDM-1 = NDM-1 (Klebsiella pneumoniae, UniProt C7C422); experiment: ICP mass spectrometry of Zn in enzyme; conditions: NDM-1 inactivated by AM-A, ICP-MS
Sequence of NDM-1 (C7C422 27-270 limits assumed): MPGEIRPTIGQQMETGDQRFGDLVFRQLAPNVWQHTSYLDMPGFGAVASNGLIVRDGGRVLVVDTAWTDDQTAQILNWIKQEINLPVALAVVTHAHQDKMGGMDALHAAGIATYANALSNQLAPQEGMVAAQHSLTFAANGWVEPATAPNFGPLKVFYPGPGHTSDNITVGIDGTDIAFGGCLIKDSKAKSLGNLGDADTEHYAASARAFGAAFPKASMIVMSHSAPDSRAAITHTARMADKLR
Procedure: Inductively coupled mass spectrometry (ICP-MS) was used to analyze the ability of AM-A to chelate Zn^66 from purified NDM-1 (27-270). The NDM-1 protein was purified as previously described^26 and freshly exchanged using a 15 kDa cutoff dialysis tubing into ICP-MS buffer (20 mM HEPES, 100 mM NaCl, pH 7.5) overnight at 4° C. in order to remove any contaminating metals. The protein was concentrated to ˜5 mg/mL and varying concentrations of AM-A were incubated with the protein samples in triplicate for 3 hours at room temperature with gentle shaking. The protein-AM-A samples were again dialyzed overnight at 4° C. into ICP-MS buffer using 12-14 kDa cutoff D-tube dialyzer mini (EMD biosciences) microdialysis cassettes. The final protein was diluted to 1 mg/mL in ICP-MS buffer, followed by a 1/40 dilution in an internal standard (10 ug/L Sc45, 1% nitric acid, Inorganic Ventures). Prior to sample analysis, the ICP MS was calibrated using a standard solution containing the metal isotopes of interest (Inorganic Ventures). […] Quantitative analysis was performed in triplicate for each sample with 60 sweeps per reading using the peak-hopping mode with a 50 ms/AMU dwell time for each element. […] Isotope abundance was determined by integrating peak areas using the NexION software program, and the data was represented graphically using Microsoft Excel.

N[C@H](CN[C@H](CN[C@@H](CC(=O)O)C(=O)O)C(=O)O)C(=O)O [AM-A, aspergillomarasmine A]
effect on CTX-M-15 (CTX-M-15): no effect
activity against IMP-7 (IMP-7): weaker activity; also recorded: less potent inactivation
effect on KPC-2 (KPC-2): no effect
effect on activity of OXA-48 (OXA-48): no effect; also recorded: unaffected
effect on TEM-1 (TEM-1): no effect
IC50 (VIM-2): 9.6 ± 2.4 µM
in vitro inhibition of VIM-2 (VIM-2): potent in vitro dose-dependent inhibition
loss of Zn from NDM-1 (NDM-1): ~1.8 Zn equivalents
